Where two headings read alike, the source gives them in different places.
What was measured:
Wistar rats [1] = settings: for Number of animals in the group/number of dead animals / LD10 / LD16 / LD84: rat; for Number of animals in the group/number of dead animals: 14 days; for LD10 / LD16 / LD84: intragastric
Procedure: The experiment was performed according to the fixed dose method in Wistar rats of both sexes, 6 animals per group. […] The solvent used was a 0.5% Tween-80 solution (Tween 80—polyoxyethylene, a derivative of sorbitan and oleic acid, a commercially available polymer), which was prepared by dissolving 0.5 g of Tween-80 in 100 ml of distilled water.
The introduction was carried out to animals deprived of food (for a period of not less than 8 hours) with free access to water. The volume of administration was calculated individually for each animal, based on the body mass recorded immediately before the introduction of the substance. Access to the feed was renewed an hour after the introduction. Animals were observed individually after administration for 30 minutes, then at least once per hour for 4 hours, then daily once a day for 14 days. Body mass was recorded immediately before the administration of the preparation to calculate the volume of administration, then once every two days. If the animal died during the study, the time of death was determined and documented as accurately as possible. The animal was weighed and dissected as soon as possible. Dying animals were weighed, euthanized and dissected. Animals were euthanized by inhalation of carbon dioxide. Toxic doses LD10, LD16, LD50 and LD84 were calculated using probit analysis with IBM SPSS Statistics software.
At the end of the experiment, euthanasia and pathomorphological dissection of control and experimental animals were performed.

cyclooxygenase (COX) = experiment: COX activity assay (fluorometric kit, peroxidase activity) with skin fibroblast (HSF) cell lysate; format: biochemical; settings: tested in presence of SC560 or celecoxib
Wistar rats [2] = format: in vivo
Procedure: In the study of analgesic properties of the formula I compound, were taken female and male Wistar rats aged 6-7 weeks with a body mass of 180-220 g. The number of animals in each group was 10.
[…] inflammation was modeled in rats by subplantar administration of 0.1 ml of a 1% solution of carrageenin (a sulfated polysaccharide from Irish sea moss) into the right hind paw. The substance was administered intragastrically using a gastric probe.
Inflammatory hyperalgesia (increased pain sensitivity of inflamed tissues in rats) was caused by carrageenin and was assessed by decrease of the pain sensitivity threshold—PST (by PST difference) to mechanical irritation (squeezing) of the paw tissue of the animal before the introduction of carrageenin and 3 hours after it. The measurement was performed on the inflamed paw. Used analgesimeter Ugo Basile S.R.L. (Italy) provides a gradual increased afterload on the rat's inflamed paw until a pain reaction appears (assessed by squeaking of animal or withdrawing the paw). The analyte was administered 2 h after carrageenin administration. […] An increase in the pain response threshold under the influence of the substances under study was expressed in an increase in the force of compression of the limb and characterized the intensity of the analgesic effect of the preparation. After the experiment, animals were euthanized by carbon dioxide inhalation method.
The introduction to rats was carried out in the amount of no more than 1 ml/100 g. The concentration of the resulting solution was 5 mg/ml.
(§1) To prepare a dose of 20 mg/kg, 40 ml of solution with a concentration of 5 mg/ml (50 mg/kg) were taken, transferred to a 100 ml measuring flask with accuracy class A, adjusted to 100 ml with 0.5% water solution of Tween-80 and the suspension was dispersed to a homogeneous consistency using a dispersant.
To prepare a dose of 10 mg/kg, 20 ml of solution with a concentration of 5 mg/ml (50 mg/kg) were taken, transferred to a 100 ml measuring flask with accuracy class A, adjusted to 100 ml with 0.5% aqueous solution of Tween-80 and the suspension was stirred to a homogeneous consistency with a magnetic stirrer MR Hei-Standard (Heidolph, Germany).
as §1, with “5” for “20”, “[…]” for “40”, “stirred” for “dispersed”, “with” for “using”, “magnetic stirrer.” for “dispersant.”

COc1ccc2cc([C@H](C)C(=O)OCc3cnc(C)c(OC(=O)[C@@H](C)c4ccc5cc(OC)ccc5c4)c3COC(=O)[C@@H](C)c3ccc4cc(OC)ccc4c3)ccc2c1 [Compound of formula I, 3-((S)-2-(6-methoxynaphth-2-yl)propanoiloxy)-4,5-bis (((S)-2-(6-methoxinaphtht-2-yl)propanoiloxy)methyl)-2-methylpyridinium (S)-2-(6-methoxynaphth-2-yl) propanoate]
Dead animals (Wistar rats [1]; 5000 mg/kg intragastric, female, three days later): 1 rat | Clinical observation after administration (Wistar rats [1]; 5000 mg/kg intragastric, symptom disappeared in 20-30 minutes): slight inhibition of the activity of the animal | Body mass increase (Wistar rats [1]; 5000 mg/kg, 2 days after start): 1-4% | Body mass increase (Wistar rats [1]; 5000 mg/kg, 4 days after start): 2-6% | Body mass increase (Wistar rats [1]; 5000 mg/kg, eighth day): 2-8% | Autopsy findings (Wistar rats [1]; 5000 mg/kg, end of experiment): No changes were observed | Body mass increase (Wistar rats [1]; 5000 mg/kg, end of the experiment): 5-13% | Hazard class (GOST 12.1.007-76) (Wistar rats [1]; intragastric administration): 4th hazard class | Number of animals in the group/number of dead animals (Wistar rats [1]; females, 5000 mg/kg intragastric): 6/1 | LD10 (Wistar rats [1]; females): >5000 | LD16 (Wistar rats [1]; females): >5000 | LD84 (Wistar rats [1]; females): >5000 | Number of animals in the group/number of dead animals (Wistar rats [1]; males, 5000 mg/kg intragastric): 6/0 | LD10 (Wistar rats [1]; males): >5000 | LD16 (Wistar rats [1]; males): >5000 | LD84 (Wistar rats [1]; males): >5000 | COX isoform preference (cyclooxygenase (COX)): preferential inhibitory activity against the isoform of COX-2 | Analgesic effect, total/analgesic effect (Wistar rats [2]; females, 5 mg/kg): 10/9 | Paw volume 0 hours (Wistar rats [2]; females, 5 mg/kg): 3.9 ± 1.4 | Paw volume 3 hours (Wistar rats [2]; females, 5 mg/kg): 7.2 ± 3.2 | Analgesic effect, % (Wistar rats [2]; females, 5 mg/kg, control = 100.0): 282.0 ± 125.9% | Analgesic effect, total/analgesic effect (Wistar rats [2]; females, 10 mg/kg): 10/8 | Paw volume 0 hours (Wistar rats [2]; females, 10 mg/kg): 4.3 ± 2.2 | Paw volume 3 hours (Wistar rats [2]; females, 10 mg/kg): 10.5 ± 7.2 | Analgesic effect, % (Wistar rats [2]; females, 10 mg/kg, control = 100.0): 408.2 ± 279.3% | Analgesic effect, total/analgesic effect (Wistar rats [2]; females, 20 mg/kg): 10/9 | Paw volume 0 hours (Wistar rats [2]; females, 20 mg/kg): 4.6 ± 3.3 | Paw volume 3 hours (Wistar rats [2]; females, 20 mg/kg): 9.1 ± 7.4 | Analgesic effect, % (Wistar rats [2]; females, 20 mg/kg, control = 100.0): 353.5 ± 289.7% | Analgesic effect, total/analgesic effect (Wistar rats [2]; females, 50 mg/kg): 10/7 | Paw volume 0 hours (Wistar rats [2]; females, 50 mg/kg): 8.9 ± 5.7 | Paw volume 3 hours (Wistar rats [2]; females, 50 mg/kg): 12.4 ± 6.5 | Analgesic effect, % (Wistar rats [2]; females, 50 mg/kg, control = 100.0): 484.4 ± 251.8% | Dose at which a pronounced anesthetic effect is exhibited (Wistar rats [2]; intragastric): 5 mg/kg | Analgesic effect, total/analgesic effect (Wistar rats [2]; males, 5 mg/kg): 10/7 | Analgesic effect, total/analgesic effect (Wistar rats [2]; males, 10 mg/kg): 10/10 | Analgesic effect, total/analgesic effect (Wistar rats [2]; males, 20 mg/kg): 10/9 | Analgesic effect, total/analgesic effect (Wistar rats [2]; males, 50 mg/kg): 10/8 | Analgesic effect, % (Wistar rats [2]; rat, in vivo, 5 mg/kg): 259.9 ± 229.7% | Paw volume 0 hours (Wistar rats [2]; rat, in vivo, 5 mg/kg): 4.4 ± 2.7 | Paw volume 3 hours (Wistar rats [2]; rat, in vivo, 5 mg/kg): 5.5 ± 2.5 | Analgesic effect, % (Wistar rats [2]; rat, in vivo, 10 mg/kg): 453.7 ± 159.9% | Paw volume 0 hours (Wistar rats [2]; rat, in vivo, 10 mg/kg): 4.2 ± 2.4 | Paw volume 3 hours (Wistar rats [2]; rat, in vivo, 10 mg/kg): 12.0 ± 4.6 | Analgesic effect, % (Wistar rats [2]; rat, in vivo, 20 mg/kg): 418.1 ± 215.7% | Paw volume 0 hours (Wistar rats [2]; rat, in vivo, 20 mg/kg): 6.4 ± 5.7 | Paw volume 3 hours (Wistar rats [2]; rat, in vivo, 20 mg/kg): 12.0 ± 6.2 | Analgesic effect, % (Wistar rats [2]; rat, in vivo, 50 mg/kg): 367.9 ± 220.1% | Paw volume 0 hours (Wistar rats [2]; rat, in vivo, 50 mg/kg): 3.4 ± 2.3 | Paw volume 3 hours (Wistar rats [2]; rat, in vivo, 50 mg/kg): 10.6 ± 6.3

Reference: patent US10688084B2 (priority 2016, dated 2020)
